Test results as given in US8476298B2 (Exelixis, Inc., priority 2003, dated 2013).

What was measured:
[1] = biological target: T1, c-Met (baculovirus expressed human c-Met kinase domain P948-S1343) (Homo sapiens, UniProt P08581); test: c-Met Luciferase-Coupled Chemiluminescent Kinase assay (LCCA); assay type: biochemical; details: Table 4, inhibition as IC50 class;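 note: kinase activity read as percent ATP left after reaction, by luciferase-luciferin chemiluminescence, with 1 µM ATP and 1 µM poly-EY substrate, 2 h at ambient temperature, 10-point dose-response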
T1 construct: human c-Met kinase domain P948-S1343; host or cells: baculovirus expression

[2] = biological target: T2, KDR (baculovirus expressed human KDR kinase domain D807-V1356) (Homo sapiens, UniProt P35968); test: biochemical; details: Table 4, inhibition as IC50 class;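 note: Luciferase-coupled chemiluminescent kinase assay, activity read as percent ATP left after 4 h reaction at ambient temperature, ATP near KM, 10-point dose-response in 384-well plates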
T2 construct: human KDR kinase domain D807-V1356; host or cells: baculovirus expression

[3] = biological target: T3, Flt-4 (baculovirus expressed human Flt-4 kinase domain D725-R1298) (Homo sapiens, UniProt P35916); test: flt-4 Alphascreen Tyrosine Kinase assay; assay type: biochemical; details: Table 4, inhibition as IC50 class; read-out: flt4 IC50;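 note: AlphaScreen chemiluminescence read-out of biotinylated poly(Glu,Tyr) 4:1 phosphorylation via streptavidin donor and PY100 anti-phosphotyrosine acceptor beads, ATP near KM, 1 hr kinase reaction, 10-point dose-response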
T3 construct: human Flt-4 kinase domain D725-R1298; host or cells: baculovirus expression

[4] = biological target: T4, Flt-3 (baculovirus expressed human Flt-3 kinase domain R571-S993) (Homo sapiens, UniProt P36888); test: biochemical; details: Table 4, inhibition as IC50 class; read-out: flt3 IC50;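 note: Luciferase-coupled chemiluminescent kinase assay, activity read as percent ATP left after a 3 h reaction at room temperature, ATP near KM, 10-point dose-response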
T4 construct: human Flt-3 kinase domain R571-S993; host or cells: baculovirus expression
T4 sequence (P36888 571-993): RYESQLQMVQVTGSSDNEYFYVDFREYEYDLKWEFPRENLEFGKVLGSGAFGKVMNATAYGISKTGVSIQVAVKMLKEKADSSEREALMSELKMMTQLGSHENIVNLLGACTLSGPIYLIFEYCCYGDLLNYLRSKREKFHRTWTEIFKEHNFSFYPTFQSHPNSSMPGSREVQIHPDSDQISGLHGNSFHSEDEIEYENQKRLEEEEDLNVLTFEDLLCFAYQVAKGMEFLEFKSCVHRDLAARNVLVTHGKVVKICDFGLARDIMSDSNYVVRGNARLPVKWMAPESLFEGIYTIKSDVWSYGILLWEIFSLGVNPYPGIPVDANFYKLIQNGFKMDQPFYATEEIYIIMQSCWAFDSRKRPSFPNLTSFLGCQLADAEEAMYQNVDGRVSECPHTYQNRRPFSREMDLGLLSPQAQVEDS

c-Kit kinase = c-Kit kinase (Homo sapiens, UniProt P10721); test: c-Kit AlphaScreen kinase assay; assay type: biochemical; details: Table 4, inhibition as IC50 class;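 note: c-Kit kinase phosphorylating biotinylated poly(Glu,Tyr), ATP near its KM, 1 h reaction at ambient temperature, AlphaScreen chemiluminescence with streptavidin donor and anti-phosphotyrosine acceptor beads, 10-point inhibitor titration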
Chain of c-Kit kinase (P10721 26-976): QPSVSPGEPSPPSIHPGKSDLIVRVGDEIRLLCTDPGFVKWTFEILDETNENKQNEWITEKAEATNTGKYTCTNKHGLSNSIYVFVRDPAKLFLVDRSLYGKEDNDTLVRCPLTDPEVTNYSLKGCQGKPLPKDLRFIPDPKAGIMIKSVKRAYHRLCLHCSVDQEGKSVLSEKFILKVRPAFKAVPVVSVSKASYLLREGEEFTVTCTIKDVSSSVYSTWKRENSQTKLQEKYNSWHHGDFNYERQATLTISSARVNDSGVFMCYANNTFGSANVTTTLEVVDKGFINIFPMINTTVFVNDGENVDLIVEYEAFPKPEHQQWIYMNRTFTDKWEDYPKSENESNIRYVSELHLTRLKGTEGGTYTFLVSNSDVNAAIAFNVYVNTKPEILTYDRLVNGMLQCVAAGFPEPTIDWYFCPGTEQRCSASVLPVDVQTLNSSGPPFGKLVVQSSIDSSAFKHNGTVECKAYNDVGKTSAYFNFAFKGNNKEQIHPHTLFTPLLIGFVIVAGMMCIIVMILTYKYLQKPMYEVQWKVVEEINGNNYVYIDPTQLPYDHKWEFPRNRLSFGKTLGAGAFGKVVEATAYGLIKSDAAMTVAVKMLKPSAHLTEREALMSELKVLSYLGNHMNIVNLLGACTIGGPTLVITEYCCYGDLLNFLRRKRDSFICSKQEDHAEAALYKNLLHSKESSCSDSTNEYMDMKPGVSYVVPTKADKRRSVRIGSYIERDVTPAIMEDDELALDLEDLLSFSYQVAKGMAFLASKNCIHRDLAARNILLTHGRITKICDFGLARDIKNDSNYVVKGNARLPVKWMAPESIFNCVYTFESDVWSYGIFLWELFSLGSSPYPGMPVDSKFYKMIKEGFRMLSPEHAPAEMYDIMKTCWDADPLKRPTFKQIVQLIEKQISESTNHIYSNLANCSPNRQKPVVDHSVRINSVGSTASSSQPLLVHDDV

T1 sequence (P08581 1011-1343 limits assumed): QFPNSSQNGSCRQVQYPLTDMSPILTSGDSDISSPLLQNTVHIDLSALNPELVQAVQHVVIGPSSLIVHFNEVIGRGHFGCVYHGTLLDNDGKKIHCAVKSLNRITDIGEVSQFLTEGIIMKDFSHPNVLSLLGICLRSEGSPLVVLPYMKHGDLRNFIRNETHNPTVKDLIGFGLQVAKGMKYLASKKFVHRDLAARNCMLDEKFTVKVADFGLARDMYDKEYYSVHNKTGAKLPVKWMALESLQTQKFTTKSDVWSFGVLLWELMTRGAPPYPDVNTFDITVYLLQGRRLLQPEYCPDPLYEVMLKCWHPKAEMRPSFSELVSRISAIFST
T2 sequence (P35968 807-1356): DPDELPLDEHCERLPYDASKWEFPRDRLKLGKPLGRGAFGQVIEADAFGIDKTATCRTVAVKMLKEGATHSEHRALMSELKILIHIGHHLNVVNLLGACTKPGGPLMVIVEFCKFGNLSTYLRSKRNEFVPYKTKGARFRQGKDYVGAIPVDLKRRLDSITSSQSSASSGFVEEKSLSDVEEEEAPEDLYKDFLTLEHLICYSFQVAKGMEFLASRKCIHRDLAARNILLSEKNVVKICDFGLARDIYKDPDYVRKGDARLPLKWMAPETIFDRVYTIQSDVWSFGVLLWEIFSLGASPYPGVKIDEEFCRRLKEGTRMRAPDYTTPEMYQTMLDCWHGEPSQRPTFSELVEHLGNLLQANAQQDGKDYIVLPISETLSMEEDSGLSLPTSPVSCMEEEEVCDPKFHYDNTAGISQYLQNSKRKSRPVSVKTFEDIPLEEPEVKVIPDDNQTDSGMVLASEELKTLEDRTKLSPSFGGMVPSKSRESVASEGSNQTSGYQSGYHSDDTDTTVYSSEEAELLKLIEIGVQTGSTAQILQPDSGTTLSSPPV
T3 sequence (P35916 725-1298 isoform P35916-1): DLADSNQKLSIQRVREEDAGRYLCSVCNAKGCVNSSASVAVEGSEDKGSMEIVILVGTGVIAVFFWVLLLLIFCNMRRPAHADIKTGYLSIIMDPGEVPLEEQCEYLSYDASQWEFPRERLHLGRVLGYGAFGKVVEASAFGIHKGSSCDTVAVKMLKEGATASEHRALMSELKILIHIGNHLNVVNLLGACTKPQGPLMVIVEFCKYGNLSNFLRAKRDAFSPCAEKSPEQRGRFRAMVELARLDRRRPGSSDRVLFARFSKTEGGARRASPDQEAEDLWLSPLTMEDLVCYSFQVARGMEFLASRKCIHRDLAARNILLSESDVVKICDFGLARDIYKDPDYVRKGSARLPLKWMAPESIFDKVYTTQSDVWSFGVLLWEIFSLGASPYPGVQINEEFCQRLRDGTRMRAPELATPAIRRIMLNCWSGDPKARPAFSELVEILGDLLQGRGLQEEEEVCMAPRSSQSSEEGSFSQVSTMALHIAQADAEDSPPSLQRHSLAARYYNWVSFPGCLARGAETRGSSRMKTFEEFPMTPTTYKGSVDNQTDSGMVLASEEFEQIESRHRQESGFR

SMILES | IC50 [1] [nM] | IC50 [2] [nM] | IC50 [3] [nM] | IC50 [4] [nM] | IC50 (c-Kit kinase) [nM]
COc1cc2c(Oc3ccc(NC(=O)C(=O)NCc4cc(F)cc(F)c4)cc3F)ccnc2cc1OCC1CCNCC1 [Example 233, N-[(3,5-difluorophenyl)methyl]-N′-[3-fluoro-4-({6-(methyloxy)-7-[(piperidin-4-ylmethyl)oxy]quinolin-4-yl}oxy)phenyl]ethanediamide] | < 50 | < 50 | < 50 | 50 to 500 | < 50
COc1cc2c(Oc3ccc(NC(=O)C(=O)NCc4cc(C(F)(F)F)ccc4Cl)cc3F)ccnc2cc1OCC1CCNCC1 [Example 234, N-{[2-chloro-5-(trifluoromethyl)phenyl]methyl}-N′-[3-fluoro-4-({6-(methyloxy)-7-[(piperidin-4-ylmethyl)oxy]quinolin-4-yl}oxy)phenyl]ethanediamide] | < 50 | < 50 | 50 to 500 | < 50 | 50 to 500
COc1cc2c(Oc3ccc(NC(=O)C(=O)NCc4cccc(C(F)(F)F)c4)cc3F)ccnc2cc1OCC1CCNCC1 [Example 239, N-[3-fluoro-4-({6-(methyloxy)-7-[(piperidin-4-ylmethyl)oxy]quinolin-4-yl}oxy)phenyl]-N′-{[3-(trifluoromethyl)phenyl]methyl}ethanediamide] | < 50 | < 50 | 50 to 500 | < 50 | < 50
COc1ccccc1CNC(=O)C(=O)Nc1ccc(Oc2ccnc3cc(OCC4CCNCC4)c(OC)cc23)c(F)c1 [Example 241, N-[3-fluoro-4-({6-(methyloxy)-7-[(piperidin-4-ylmethyl)oxy]quinolin-4-yl}oxy)phenyl]-N′-{[2-(methyloxy)phenyl]methyl}ethanediamide] | < 50 | < 50 | < 50 | < 50 | < 50
COc1cc2c(Oc3ccc(NC(=O)C(=O)NCc4cccc(Cl)c4)cc3F)ccnc2cc1OCC1CCNCC1 [Example 243, N-[(3-chlorophenyl)methyl]-N′-[3-fluoro-4-({6-(methyloxy)-7-[(piperidin-4-ylmethyl)oxy]quinolin-4-yl}oxy)phenyl]ethanediamide] | < 50 | < 50 | 50 to 500 | 50 to 500 | < 50
COc1cc2c(Oc3ccc(NC(=O)C(=O)NCCc4ccccc4)cc3F)ccnc2cc1OCC1CN(C)C1 [Example 250, N-(3-fluoro-4-{[7-{[(1-methylazetidin-3-yl)methyl]oxy}-6-(methyloxy)quinolin-4-yl]oxy}phenyl)-N′-(2-phenylethyl)ethanediamide] | < 50 | < 50 | < 50 | < 50 | < 50
COc1cc2c(Oc3ccc(NC(=O)C(=O)NCc4ccc(F)c(F)c4)cc3F)ccnc2cc1OCC1CCNCC1 [Example 256, N-[(3,4-difluorophenyl)methyl]-N′-[3-fluoro-4-({6-(methyloxy)-7-[(piperidin-4-ylmethyl)oxy]quinolin-4-yl}oxy)phenyl]ethanediamide] | < 50 | < 50 | < 50 | 50 to 500 | < 50
COc1cc2c(Oc3ccc(NC(=O)C(=O)NCc4c(F)cccc4F)cc3F)ccnc2cc1OCC1CCNCC1 [Example 257, N-[(2,6-difluorophenyl)methyl]-N′-[3-fluoro-4-({6-(methyloxy)-7-[(piperidin-4-ylmethyl)oxy]quinolin-4-yl}oxy)phenyl]ethanediamide] | < 50 | < 50 | < 50 | 50 to 500 | < 50
COc1cc2c(Oc3ccc(NC(=O)C(=O)NCCc4ccc(F)cc4)cc3F)ccnc2cc1OCC1CCN(C)CC1 [Example 258, N-{3-fluoro-4-[(6-(methyloxy)-7-{[(1-methylpiperidin-4-yl)methyl]oxy}quinolin-4-yl)oxy]phenyl}-N′-[2-(4-fluorophenyl)ethyl]ethanediamide] | < 50 | < 50 | < 50 | < 50 | < 50
COc1cc2c(Oc3ccc(NC(=O)C(=O)Nc4ccc(F)c(Cl)c4)cc3F)ccnc2cc1OCC1CCNCC1 [Example 261, N-(3-chloro-4-fluorophenyl)-N′-[3-fluoro-4-({6-(methyloxy)-7-[(piperidin-4-ylmethyl)oxy]quinolin-4-yl}oxy)phenyl]ethanediamide] | < 50 | 500 to 5000 | 50 to 500 | 50 to 500 | 500 to 5000

The next lines start with the values.

IC50 [1] [nM] | IC50 [2] [nM] | IC50 [3] [nM] | IC50 [4] [nM] | IC50 (c-Kit kinase) [nM] | SMILES
< 50 | < 50 | < 50 | < 50 | < 50 | COc1cc2c(Oc3ccc(NC(=O)C(=O)NCc4cccc(OC(F)(F)F)c4)cc3F)ccnc2cc1OCC1CCNCC1 [Example 240, N-[3-fluoro-4-({6-(methyloxy)-7-[(piperidin-4-ylmethyl)oxy]quinolin-4-yl}oxy)phenyl]-N′-({3-[(trifluoromethyl)oxy]phenyl}methyl)ethanediamide]
< 50 | < 50 | < 50 | < 50 | < 50 | COc1cc2c(Oc3ccc(NC(=O)C(=O)NCc4ccccc4OC(F)(F)F)cc3F)ccnc2cc1OCC1CCNCC1 [Example 244, N-[3-fluoro-4-({6-(methyloxy)-7-[(piperidin-4-ylmethyl)oxy]quinolin-4-yl}oxy)phenyl]-N′-({2-[(trifluoromethyl)oxy]phenyl}methyl)ethanediamide]
< 50 | < 50 | < 50 | < 50 | < 50 | COc1cc2c(Oc3ccc(NC(=O)C(=O)NCc4ccccc4Cl)cc3F)ccnc2cc1OCC1CCNCC1 [Example 245, N-[(2-chlorophenyl)methyl]-N′-[3-fluoro-4-({6-(methyloxy)-7-[(piperidin-4-ylmethyl)oxy]quinolin-4-yl}oxy)phenyl]ethanediamide]
< 50 | 50 to 500 | 50 to 500 | 50 to 500 | 50 to 500 | COc1cc2c(Oc3ccc(NC(=O)C(=O)NCc4ccc(OC(F)(F)F)cc4)cc3F)ccnc2cc1OCC1CCNCC1 [Example 246, N-[3-fluoro-4-({6-(methyloxy)-7-[(piperidin-4-ylmethyl)oxy]quinolin-4-yl}oxy)phenyl]-N′-({4-[(trifluoromethyl)oxy]phenyl}methyl)ethanediamide]
< 50 | 50 to 500 | 50 to 500 | 50 to 500 | 50 to 500 | CC[C@@H](NC(=O)C(=O)Nc1ccc(Oc2ccnc3cc(OCC4CCNCC4)c(OC)cc23)c(F)c1)c1ccccc1 [Example 254, N-[3-fluoro-4-({6-(methyloxy)-7-[(piperidin-4-ylmethyl)oxy]quinolin-4-yl}oxy)phenyl]-N′-[(1R)-1-phenylpropyl]ethanediamide]
< 50 | 50 to 500 | 50 to 500 | 500 to 5000 | 500 to 5000 | COc1cc2c(Oc3ccc(NC(=O)C(=O)Nc4ccccc4)cc3F)ccnc2cc1OCC1CCN(C)CC1 [Example 259, N-{3-fluoro-4-[(6-(methyloxy)-7-{[(1-methylpiperidin-4-yl)methyl]oxy}quinolin-4-yl)oxy]phenyl}-N′-phenylethanediamide]
< 50 | 500 to 5000 | 500 to 5000 | 500 to 5000 | 50 to 500 | COc1cc2c(Oc3ccc(NC(=O)C(=O)Nc4cccc(F)c4)cc3F)ccnc2cc1OCC1CCNCC1 [Example 260, N-[3-fluoro-4-({6-(methyloxy)-7-[(piperidin-4-ylmethyl)oxy]quinolin-4-yl}oxy)phenyl]-N′-(3-fluorophenyl)ethanediamide]
< 50 | 500 to 5000 | 50 to 500 | 50 to 500 | 500 to 5000 | COc1ccc(NC(=O)C(=O)Nc2ccc(Oc3ccnc4cc(OCC5CCNCC5)c(OC)cc34)c(F)c2)cc1OC [Example 262, N-[3,4-bis(methyloxy)phenyl]-N′-[3-fluoro-4-({6-(methyloxy)-7-[(piperidin-4-ylmethyl)oxy]quinolin-4-yl}oxy)phenyl]ethanediamide]
< 50 | 50 to 500 | 50 to 500 | 50 to 500 | < 50 | COc1cc2c(Oc3ccc(NC(=O)C(=O)NCCC(C)C)cc3F)ccnc2cc1OCC1CCNCC1 [Example 263, N-[3-fluoro-4-({6-(methyloxy)-7-[(piperidin-4-ylmethyl)oxy]quinolin-4-yl}oxy)phenyl]-N′-(3-methylbutyl)ethanediamide]
< 50 | < 50 | 50 to 500 | < 50 | < 50 | COc1cc2c(Oc3ccc(NC(=O)C(=O)NCCC(C)(C)C)cc3F)ccnc2cc1OCC1CCNCC1 [Example 264, N-(3,3-dimethylbutyl)-N′-[3-fluoro-4-({6-(methyloxy)-7-[(piperidin-4-ylmethyl)oxy]quinolin-4-yl}oxy)phenyl]ethanediamide]
